Three compounds from patent US20240247080A1, “GLP1/GIP/NPY2 RECEPTOR TRIPLE AGONISTS” (Boehringer Ingelheim International GmbH, priority 2022, published 2024) can be followed below.

In one data set the target is T1, hGLP1R (Homo sapiens, UniProt P43220).
T1 construct: expressed in transfected cells; host or cells: HEK-293 cells carrying a CRE-luciferase reporter gene
Nature of the data set: hGLP1R CreLuc reporter gene assay in 0.5% and 100% plasma. It counts as cell-based. The note with it: CreLuc reporter gene assay, 0.5% human plasma; read-out: hGLP1R 0.5% hP. The gist of the method:
(§1)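 Agonist EC50s came from 8-concentration curves over four decades, fitted by non-linear variable-slope regression of CRE-driven luciferase luminescence. Cells were exposed 4 h at 37 °C, in buffer with 0.5% human plasma or in 100% plasma; GIPR was expressed in CHO cells, GLP-1R and NPY2R in HEK cells.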

Data set [1] in a line: Effect on acute food intake in normal NMRI mice. The note with it: 30 nmol/kg subcutaneously once, normalized to vehicle group, male NMRI mice. Type of data set: in vivo. As for the experimental part:
Example 4: Effect on Acute Food Intake in Normal NMRI Mice
Male NMRI mice were obtained from Janvier (Janvier Labs, France) or from Charles River (Charles River Research Models & Services Germany GmbH) at the age of 3 weeks. The animals get a microchip (Datamars, Slim Microchip T-SL) for individual identification after delivery. They were housed with 4 mice per cage under a 12/12 dark-light cycle, light off at 3 p.m. Room temperature was controlled to 21° C. +/−1° C. and humidity 60%+/−20%. Mice had ad libitum access to regular rodent chow (KLIBA Nafag 3040 or Altromin 1324, Brogaarden, Denmark) and tap water.
Latest transfer into the HM2-System of MBRose, Denmark (real-time monitoring system of food- and water intake) of the animals 5 days before study start, to allow acclimatization to experimental conditions. As the animals were uniquely identified with the microchips, each individual animal was identified by its own microchip upon entry and exit from the food channel via antennae. Randomization of the mice for each study group (n=8; age earliest 6 weeks old) was based on food intake (middle of last three days 24 h-Intervall) and bodyweight directly before start of the study. A vehicle treated (50 mM phosphate buffer pH7.4 with 3.5% Mannitol) group was included in each experiment. To have the same nutrition standard for each animal the food access was locked eight hours before dark phase. One hour before night, the animals were once treated subcutaneously with the test peptide. Food intake was reported hourly for a period of 24 h.

Data set [2] in a line: Mouse PK after intravenous application. The note with it: plasma, mean residence time, intravenous 30-60 nmol/kg, male NMRI mice. It counts as in vivo. The gist of the method:
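Male NMRI mice (30–40 g) received 30-60 nmol/kg peptide by tail-vein injection, dissolved in 50 mM phosphate buffer (pH 7.4)/3.5% mannitol. Saphenous blood was sampled up to 56 hours post-dose and EDTA plasma analysed by LC-MS. PK parameters came from non-compartmental analysis.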

The next data set has as its target T2, hGIPR (Homo sapiens, UniProt P48546).
T2 construct: expressed in transfected cells; host or cells: CHO cells carrying a CRE-luciferase reporter gene
T2 sequence (P48546 22-466): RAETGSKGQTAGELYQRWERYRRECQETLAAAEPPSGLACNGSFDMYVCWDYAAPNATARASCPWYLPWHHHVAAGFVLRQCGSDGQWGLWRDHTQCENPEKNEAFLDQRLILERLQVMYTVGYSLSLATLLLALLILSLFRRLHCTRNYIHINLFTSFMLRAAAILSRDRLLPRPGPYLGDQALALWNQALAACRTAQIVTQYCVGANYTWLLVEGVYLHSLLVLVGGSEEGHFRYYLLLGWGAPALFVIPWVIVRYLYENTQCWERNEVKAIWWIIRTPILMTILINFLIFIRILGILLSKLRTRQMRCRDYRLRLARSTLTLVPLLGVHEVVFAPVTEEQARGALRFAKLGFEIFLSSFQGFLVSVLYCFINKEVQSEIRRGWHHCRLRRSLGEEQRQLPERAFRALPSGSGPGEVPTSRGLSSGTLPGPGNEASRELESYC
Nature of the data set: hGIPR CreLuc reporter gene assay in 0.5% and 100% plasma. It counts as cell-based. The note with it: CreLuc reporter gene assay. The gist of the method: as §1

For the next data set, the target named is T3, hNPY2R (Homo sapiens, UniProt P49146).
T3 construct: expressed in transfected cells; host or cells: HEK-293 cells carrying a CRE-luciferase reporter gene
T3 sequence (P49146 1-381): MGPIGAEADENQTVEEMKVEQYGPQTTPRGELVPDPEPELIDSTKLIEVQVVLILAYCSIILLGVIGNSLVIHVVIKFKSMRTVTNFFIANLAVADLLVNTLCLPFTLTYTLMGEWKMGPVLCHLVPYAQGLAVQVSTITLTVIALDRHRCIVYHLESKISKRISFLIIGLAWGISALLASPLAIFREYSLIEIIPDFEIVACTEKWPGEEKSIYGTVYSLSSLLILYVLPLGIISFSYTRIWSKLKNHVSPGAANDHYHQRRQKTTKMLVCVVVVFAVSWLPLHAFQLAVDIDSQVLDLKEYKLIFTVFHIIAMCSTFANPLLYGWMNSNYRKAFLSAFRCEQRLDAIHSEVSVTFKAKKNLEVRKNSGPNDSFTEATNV
The experiment in a line: hNPY2R CreLuc reporter gene assay in 0.5% and 100% plasma. It counts as cell-based. The note with it: CreLuc reporter gene assay. An outline of the steps: as §1

Where [3] appears, read: 0.5% human plasma, read-out: hGIPR 0.5% hP.
Where [4] appears, read: 0.5% human plasma, read-out: hNPY2R 0.5% hP.
Where [5] appears, read: 100% human plasma, read-out: hNPY2R 100% hP.

Read-outs that look alike come from different tables or passages of the source.

T1 sequence (P43220 24-463): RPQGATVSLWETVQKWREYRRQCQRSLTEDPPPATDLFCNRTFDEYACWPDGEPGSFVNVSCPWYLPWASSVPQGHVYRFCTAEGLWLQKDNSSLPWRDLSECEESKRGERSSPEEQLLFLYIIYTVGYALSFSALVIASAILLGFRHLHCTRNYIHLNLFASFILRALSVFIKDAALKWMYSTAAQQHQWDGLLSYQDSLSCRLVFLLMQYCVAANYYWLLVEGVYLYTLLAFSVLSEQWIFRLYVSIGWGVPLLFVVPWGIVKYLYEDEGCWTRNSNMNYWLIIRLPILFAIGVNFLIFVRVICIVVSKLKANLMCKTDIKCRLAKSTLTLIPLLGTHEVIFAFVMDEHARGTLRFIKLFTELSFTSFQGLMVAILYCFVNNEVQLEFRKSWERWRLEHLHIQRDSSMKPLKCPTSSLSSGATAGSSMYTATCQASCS

For the compound `CC[C@H](C)[C@H](NC(=O)[C@H](CC(C)C)NC(=O)[C@H](Cc1c[nH]c2ccccc12)NC(=O)[C@H](CCC(=O)O)NC(=O)[C@@H](NC(=O)[C@H](Cc1ccccc1)NC(=O)[C@H](C)NC(=O)C(C)(C)NC(=O)[C@H](CCC(N)=O)NC(=O)[C@H](C)NC(=O)[C@H](CCC(N)=O)NC(=O)[C@H](CCCCN)NC(=O)[C@H](CCC(=O)O)NC(=O)[C@H](CC(C)C)NC(=O)C(C)(C)NC(=O)[C@@H](NC(=O)[C@H](CO)NC(=O)[C@H](Cc1ccc(O)cc1)NC(=O)[C@H](CC(=O)O)NC(=O)[C@H](CO)NC(=O)[C@@H](NC(=O)[C@H](Cc1ccccc1)NC(=O)[C@@H](NC(=O)CNC(=O)[C@H](CCC(=O)O)NC(=O)C(C)(C)NC(=O)[C@@H](N)Cc1ccc(O)cc1)[C@@H](C)O)[C@@H](C)O)[C@@H](C)CC)C(C)C)C(=O)N[C@@H](CCCCNC(=O)[C@@H](N)CCCCNC(=O)CC[C@H](NC(=O)CC[C@H](NC(=O)CC[C@H](NC(=O)CC[C@H](NC(=O)CC[C@H](NC(=O)CC[C@H](NC(=O)CCCCCCCCCCCCCCCCCCC(=O)O)C(=O)O)C(=O)O)C(=O)O)C(=O)O)C(=O)O)C(=O)O)C(=O)NCC(=O)NCC(=O)N1CCC[C@H]1C(=O)N[C@@H](CO)C(=O)N[C@@H](CCC(=O)O)C(=O)NCC(=O)N[C@@H](C)C(=O)N[C@@H](CO)C(=O)N[C@@H](CC(C)C)C(=O)N[C@@H](CCCNC(=N)N)C(=O)N[C@@H](Cc1c[nH]cn1)C(=O)N[C@@H](Cc1ccc(O)cc1)C(=O)N[C@@H](Cc1ccc(O)cc1)C(=O)N[C@@H](CC(N)=O)C(=O)N[C@@H](Cc1c[nH]c2ccccc12)C(=O)N[C@@H](CC(C)C)C(=O)N[C@H](C(=O)N[C@@H](CCCNC(=N)N)C(=O)N(C)[C@@H](CCC(N)=O)C(=O)N[C@@H](CCCNC(=N)N)C(=O)N[C@@H](Cc1ccc(O)cc1)C(N)=O)[C@@H](C)O` [Compound 222, Y-Aib-E-G-T-F-T-S-D-Y-S-I-Aib-L-E-K-Q-A-Q-Aib-A-F-V-E-W-L-I-K(1,3)-G-G-P-S-E-G-A-S-L-R-H-Y-Y-N-W-L-T-R-NMeQ-R-Y-NH2.C20DA-gGlu-gGlu-gGlu-gGlu-gGlu-gGlu-eLys(1,2)], the EC50 on hGLP1R was 0.24 nM; at hGIPR (setting [3]), 0.19 nM; at hNPY2R (setting [4]) it was 13.3 nM. For the same compound, the “Acute Food Intake 24 h 30 nmol/kg [% CTL]” value in data set [1] came out at 72 % CTL. In addition, the MRT in data set [2] stood at 11.8 h.
With `CC[C@H](C)[C@H](NC(=O)[C@H](CC(C)C)NC(=O)[C@H](Cc1c[nH]c2ccccc12)NC(=O)[C@H](CCC(=O)O)NC(=O)[C@@H](NC(=O)[C@H](Cc1ccccc1)NC(=O)[C@H](C)NC(=O)C(C)(C)NC(=O)[C@H](CCC(N)=O)NC(=O)[C@H](C)NC(=O)[C@H](CCC(N)=O)NC(=O)[C@H](CCCCN)NC(=O)[C@H](CCC(=O)O)NC(=O)[C@H](CC(C)C)NC(=O)C(C)(C)NC(=O)[C@@H](NC(=O)[C@H](CO)NC(=O)[C@H](Cc1ccc(O)cc1)NC(=O)[C@H](CC(=O)O)NC(=O)[C@H](CO)NC(=O)[C@@H](NC(=O)[C@H](Cc1ccccc1)NC(=O)[C@@H](NC(=O)CNC(=O)[C@H](CCC(=O)O)NC(=O)C(C)(C)NC(=O)[C@@H](N)Cc1ccc(O)cc1)[C@@H](C)O)[C@@H](C)O)[C@@H](C)CC)C(C)C)C(=O)N[C@@H](CCCCNC(=O)[C@@H](N)CCCCNC(=O)CC[C@H](NC(=O)CC[C@H](NC(=O)CC[C@H](NC(=O)CC[C@H](NC(=O)CC[C@H](NC(=O)CC[C@H](NC(=O)CCCCCCCCCCCCCCCCCCC(=O)O)C(=O)O)C(=O)O)C(=O)O)C(=O)O)C(=O)O)C(=O)O)C(=O)NCC(=O)NCC(=O)N1CCC[C@H]1C(=O)N[C@@H](CO)C(=O)N[C@@H](CO)C(=O)NCC(=O)N[C@@H](C)C(=O)N[C@@H](CO)C(=O)N[C@@H](CC(C)C)C(=O)N[C@@H](CCCNC(=N)N)C(=O)N[C@@H](Cc1c[nH]cn1)C(=O)N[C@@H](Cc1ccc(O)cc1)C(=O)N[C@@H](Cc1ccc(O)cc1)C(=O)N[C@@H](CC(N)=O)C(=O)N[C@@H](Cc1c[nH]c2ccccc12)C(=O)N[C@@H](CC(C)C)C(=O)N[C@H](C(=O)N[C@@H](CCCNC(=N)N)C(=O)N[C@@H](CCC(N)=O)C(=O)N[C@@H](CCCNC(=N)N)C(=O)N[C@@H](Cc1ccc(O)cc1)C(N)=O)[C@@H](C)O` [Compound 221, Y-Aib-E-G-T-F-T-S-D-Y-S-I-Aib-L-E-K-Q-A-Q-Aib-A-F-V-E-W-L-I-K(1,3)-GGPSSGASLRHYYNWLTRQRY-NH2.C20DA-gGlu-gGlu-gGlu-gGlu-gGlu-gGlu-eLys(1,2)], the EC50 was determined as 0.11 nM at hGLP1R, 0.14 nM at hGIPR (setting [3]), 12.4 nM at hNPY2R (setting [4]) and 49.3 nM at hNPY2R (setting [5]). Moreover, in data set [1], the “Acute Food Intake 24 h 30 nmol/kg [% CTL]” value stood at 51 % CTL. This compound returned an MRT in data set [2] of 11 h.
With `CC[C@H](C)[C@H](NC(=O)[C@H](CC(C)C)NC(=O)[C@H](Cc1c[nH]c2ccccc12)NC(=O)[C@H](CCC(N)=O)NC(=O)[C@@H](NC(=O)[C@H](Cc1ccccc1)NC(=O)[C@H](C)NC(=O)C(C)(C)NC(=O)[C@H](CCC(N)=O)NC(=O)[C@H](C)NC(=O)[C@H](CCC(N)=O)NC(=O)[C@H](CCCCN)NC(=O)[C@H](CCC(=O)O)NC(=O)[C@H](CC(C)C)NC(=O)C(C)(C)NC(=O)[C@@H](NC(=O)[C@H](CO)NC(=O)[C@H](Cc1ccc(O)cc1)NC(=O)[C@H](CC(=O)O)NC(=O)[C@H](CO)NC(=O)[C@@H](NC(=O)[C@H](Cc1ccccc1)NC(=O)[C@@H](NC(=O)CNC(=O)[C@H](CCC(=O)O)NC(=O)C(C)(C)NC(=O)[C@@H](N)Cc1ccc(O)cc1)[C@@H](C)O)[C@@H](C)O)[C@@H](C)CC)C(C)C)C(=O)N[C@@H](CCCCNC(=O)[C@@H](N)CCCCNC(=O)CC[C@H](NC(=O)CC[C@H](NC(=O)CC[C@H](NC(=O)CC[C@H](NC(=O)CC[C@H](NC(=O)CC[C@H](NC(=O)CCCCCCCCCCCCCCCCC(=O)O)C(=O)O)C(=O)O)C(=O)O)C(=O)O)C(=O)O)C(=O)O)C(=O)NCC(=O)NCC(=O)N1CCC[C@H]1C(=O)N[C@@H](CO)C(=O)N[C@@H](CCC(=O)O)C(=O)NCC(=O)N[C@@H](C)C(=O)N[C@@H](CO)C(=O)N[C@@H](CC(C)C)C(=O)N[C@@H](CCCNC(=N)N)C(=O)N[C@@H](Cc1c[nH]cn1)C(=O)N[C@@H](Cc1ccc(O)cc1)C(=O)N[C@@H](Cc1ccc(O)cc1)C(=O)N[C@@H](CC(N)=O)C(=O)N[C@@H](Cc1c[nH]c2ccccc12)C(=O)N[C@@H](CC(C)C)C(=O)N[C@H](C(=O)N[C@@H](CCCNC(=N)N)C(=O)N[C@@H](CCC(N)=O)C(=O)N[C@@H](CCCNC(=N)N)C(=O)N[C@@H](Cc1ccc(O)cc1)C(N)=O)[C@@H](C)O` [Compound 265, Y-Aib-E-G-T-F-T-S-D-Y-S-I-Aib-L-E-K-Q-A-Q-Aib-A-F-V-Q-W-L-I-K(1,3)-GGPSEGASLRHYYNWLTRQRY-NH2.C18DA-gGlu-gGlu-gGlu-gGlu-gGlu-gGlu-eLys(1,2)], the EC50 on hGLP1R was found to be 0.1 nM; at hGIPR (setting [3]), 0.39 nM; on hGIPR (100% human plasma, read-out: hGIPR 100% hP), 0.79 nM; on hNPY2R (setting [5]) it was 23 nM. In data set [1], the “Acute Food Intake 24 h 30 nmol/kg [% CTL]” value is recorded as 50 % CTL. Moreover, the MRT in data set [2] amounted to 8.5 h.
